“Also recorded” adds a separate entry of the source.
Tests used:
[1] = tested on: murine models of inflammatory bowel disease (IBD); settings: numerous murine models; cited from earlier work
cyclophilin = cyclophilin (Homo sapiens, UniProt P62937); settings: cited from earlier work
[2] = Dissolving drug pills or powder in water for spectroscopy samples; assay type: physicochemical; settings: pills or powder (Sigma A5000) in water, 0.1-10% (w/v) samples
Source text: Other test samples included anti-inflammatory drugs, e.g., Ibuprofen and Acetaminophen, dissolved in water. Yet other test samples included microcrystalline cellulose, which can be one primary filler material in anti-inflammatory drugs, dissolved in water. […] The Ibuprofen, Acetaminophen and microcrystalline cellulose samples held by the well plate 700B were used to perform spectroscopy of Ibuprofen, Acetaminophen and microcrystalline cellulose in reflectance mode using Benchtop spectrometers #5, #2 and #3. Further, the Ibuprofen and Acetaminophen samples were siphoned from the well plate 700B and combined into a few cuvettes. […] These Ibuprofen and Acetaminophen samples held by the cuvettes were used to perform spectroscopy of Ibuprofen and Acetaminophen in transmission mode using Benchtop spectrometers #4, #5, #2 and #3.
Some test samples included solutions of Ibuprofen having various concentrations. Ibuprofen powder (Sigma 11892) was dissolved in water directly in cuvettes having an optical path thickness of 10 mm. These solutions had Ibuprofen concentrations varying in the range of 0.1-10% (w/v). Other test samples included solutions of Acetaminophen having various concentrations. Acetaminophen powder (Sigma A5000) was dissolved in water directly in cuvettes having an optical path thickness of 10 mm. […]

Sequence of cyclophilin (P62937 whole entry): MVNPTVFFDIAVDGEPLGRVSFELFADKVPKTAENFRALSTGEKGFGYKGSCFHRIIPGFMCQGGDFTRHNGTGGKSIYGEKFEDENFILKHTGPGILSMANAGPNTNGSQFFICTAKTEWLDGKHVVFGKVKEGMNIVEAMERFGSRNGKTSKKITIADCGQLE

Molecule: L-glutamic acid polymer with L-alanine, L-lysine and L-tyrosine, acetate (salt) [Glatiramer acetate]
- effect on inflammation and pathological manifestations of IBD [1]: reduce inflammation and ameliorate the pathological manifestations

Molecule: C=C/C=C/C[C@@H](C)[C@@H](O)[C@H]1C(=O)N[C@@H](CC)C(=O)N(C)CC(=O)N(C)[C@@H](CC(C)C)C(=O)N[C@@H](C(C)C)C(=O)N(C)[C@@H](CC(C)C)C(=O)N[C@@H](C)C(=O)N[C@H](C)C(=O)N(C)[C@@H](CC(C)C)C(=O)N(C)[C@@H](CC(C)C)C(=O)N(C)[C@@H](C(C)C)C(=O)N1C [voclosporin]
- binding affinity for cyclophilin relative to cyclosporine A (cyclophilin): comparable

Molecule: CC(=O)Nc1ccc(O)cc1 [Acetaminophen]
- solubility in water [2]: limited solubility in water; also recorded: poor solubility

— US20220273196A1, “INGESTIBLE DEVICE AND ASSOCIATED METHODS” (Biora Therapeutics, Inc., priority 2017, published 2022)
